Structures can show the parent of a compound that is named as a salt.

human recombinant adenosine kinase, sequence (P55263 1-345 isoform P55263-2): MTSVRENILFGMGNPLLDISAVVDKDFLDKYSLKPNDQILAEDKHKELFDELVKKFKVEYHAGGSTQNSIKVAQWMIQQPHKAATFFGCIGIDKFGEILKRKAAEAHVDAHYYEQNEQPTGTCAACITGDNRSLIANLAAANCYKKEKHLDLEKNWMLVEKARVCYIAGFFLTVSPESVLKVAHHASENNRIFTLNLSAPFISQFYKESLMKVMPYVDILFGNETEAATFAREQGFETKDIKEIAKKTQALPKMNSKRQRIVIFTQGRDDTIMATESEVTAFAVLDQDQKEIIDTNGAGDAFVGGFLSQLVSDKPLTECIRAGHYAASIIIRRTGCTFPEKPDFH

Test system in one data set: not given
Experiment: not given
Conditions: not given
For orientation: melting point means the temperature, or range, at which the solid turns liquid. `CN1CCC(N(C)c2ncnc3oc(-c4ccc(F)cc4)c(-c4ccc(F)cc4)c23)CC1`: the melting point lay within 180 to 181 °C.
`COc1cc(OC)cc(-c2oc3ncnc(NC4CCCCCC4)c3c2-c2ccccc2)c1` [Example 1, N-Cycloheptyl-6-(3,5-dimethoxyphenyl)-5-phenylfuro[2,3-d]pyrimidine-4-amine] returned a melting point of 151 to 152 °C.
Still for that read-out and setting: in the case of `COc1cc(OC)cc(-c2oc3ncnc(N4CCCCC4)c3c2-c2ccccc2)c1` [Example 2, 6-(3,5-Dimethoxyphenyl)-5-phenyl-4-(1-piperidinyl)furo[2,3-d]pyrimidine] it was 152 to 153 °C; in that of `CN1CCN(c2ncnc3oc(-c4ccc([N+](=O)[O-])cc4)c(-c4ccc(F)cc4)c23)CC1` [Example 3, 5-(4-Fluorophenyl)-4-(4-methyl-1-piperazinyl)-6-(4-nitrophenyl)furo[2,3-d]pyrimidine], over 250 °C.
Same read-out and setting: the same measure for `CN1CCN(c2ncnc3oc(-c4ccc(N5CCOCC5)nc4)c(-c4ccccc4)c23)CC1` [Example 7, 4-(4-Methyl-1-piperazinyl)-6-[N-(4-morpholinyl)-3-pyridinyl]-5-phenylfuro[2,3-d]pyrimidine]: 255 to 257 °C; for `COc1ccc(-c2oc3ncnc(N4CCN(CCO)CC4)c3c2-c2ccc(F)cc2)cc1OC` [Example 39]: 156 to 158 °C.
`O=C(Nc1ccc(-c2oc3ncnc(N4CCOCC4)c3c2-c2ccc(F)cc2)cc1)c1ccc([N+](=O)[O-])cc1` [Example 47] came in with a melting point of over 250 °C.
As for `CN1CCN(c2ncnc3oc(-c4ccc(NC(=O)c5cccc([N+](=O)[O-])c5)cc4)c(-c4ccc(F)cc4)c23)CC1` [Example 48], the melting point was over 250 °C.
On to `CN1CCN(c2ncnc3oc(-c4ccc(NC(=O)C5CCCO5)cc4)c(-c4ccc(F)cc4)c23)CC1` (centres unmarked) [Example 49], for which the melting point is over 250 °C.
On the same count and under the same terms, in the case of `COc1ccc(-c2oc3ncnc(N4CCC(C(N)=O)CC4)c3c2-c2ccc(F)cc2)cc1OC` [Example 51] it was 235 to 237 °C; in that of `COc1ccc(-c2oc3ncnc(N4CCN(C)CC4)c3c2-c2ccc(F)cc2)cc1OC` [Example 53], 168 to 169 °C.
The molecule `COc1ccc(C(=O)Nc2ccc(-c3oc4ncnc(N5CCN(C)CC5)c4c3-c3ccc(F)cc3)cc2)cc1` [Example 54] yielded a melting point of 252 to 253 °C.
On the same count and under the same terms, in the case of `CC(=O)NC(C)C(=O)Nc1ccc(-c2oc3ncnc(N4CCOCC4)c3c2-c2ccc(F)cc2)cc1` (centres unmarked) [Example 55] it was 250 to 252 °C; in that of `CCN(CC)c1ncnc2oc(-c3ccc(OC)c(OC)c3)c(-c3ccccc3)c12` [Example 63], 125 to 126 °C; in that of `COc1ccc(-c2oc3ncnc(N4CCN(C(C)C)CC4)c3c2-c2ccc(F)cc2)cc1OC` [Example 64], 180 to 181 °C.
Still for that read-out and setting: in the case of `COc1cc(OC)cc(-c2oc3ncnc(NC4CCCCCC4)c3c2-c2ccc(F)cc2)c1` [Example 69] it was 170 to 172 °C; in that of `CN1CCN(c2ncnc3oc(-c4ccc(NC(=O)c5cccnc5)cc4)c(-c4ccc(F)cc4)c23)CC1` [Example 70], over 250 °C.
`O=C(Nc1ccc(-c2oc3ncnc(N4CCOCC4)c3c2-c2ccc(F)cc2)cc1)C1CCCO1` (centres unmarked) [Example 71] returned a melting point of 201 to 202 °C.
The same measure, in the same setting: the same measure for `CN1CCN(c2ncnc3oc(-c4ccc(NCc5ccccc5)cc4)c(-c4ccccc4)c23)CC1` [Example 75]: 161 to 163 °C.
The same measure, in the same setting: in the case of `COc1cc(OC)cc(-c2oc3ncnc(N4CCN(CCO)CC4)c3c2-c2ccc(F)cc2)c1` [Example 83] it was 161 to 163 °C.
`COC(=O)c1ccc(C(=O)Nc2ccc(-c3oc4ncnc(N5CCN(C)CC5)c4c3-c3ccc(F)cc3)cc2)cc1` [Example 88] showed a melting point of over 250 °C.
With `CN1CCN(c2ncnc3oc(-c4ccc(Cl)nc4)c(-c4ccccc4)c23)CC1` [Example 94], the melting point fell in the range of 173 to 175 °C.
Still for that read-out and setting: the same measure for `COc1cc(OC)cc(-c2oc3ncnc(NC(CO)CO)c3c2-c2ccccc2)c1` [Example 108]: 131 to 133 °C.
On the same count and under the same terms, the same measure for `COc1ccc(-c2c(-c3ccc(OC)c(OC)c3)oc3ncnc(NC4CCCCC4)c23)cc1` [Example 109]: 181 to 182 °C; for `COc1ccc(-c2oc3ncnc(N4CCC(O)CC4)c3c2-c2ccccc2)cc1OC` [Example 111]: 176 to 178 °C.
`COc1ccc(-c2oc3ncnc(N4CCN(CCO)CC4)c3c2-c2ccccc2)cc1OC` [Example 112] showed a melting point of 188 to 189 °C.
`COc1cc(OC)cc(-c2oc3ncnc(N4CCN(C)CC4)c3c2-c2ccccc2)c1` [Example 113] showed a melting point of 156 to 157 °C.
Molecule `COc1ccc(-c2oc3ncnc(N4CCN(c5ccccn5)CC4)c3c2-c2ccc(F)cc2)cc1OC` [Example 114] came in with a melting point of 210 to 212 °C.
Molecule `COc1ccc(-c2oc3ncnc(NC4CCCCCC4)c3c2-c2ccc(F)cc2)cc1OC` [Example 115] had a melting point of 180 to 182 °C.
On to `COc1ccc(-c2oc3ncnc(N4CCOCC4)c3c2-c2ccc(F)cc2)cc1OC` [Example 116], for which the melting point lay in the range of 211 to 213 °C.
With `CN1CCN(c2ncnc3oc(-c4ccc(NC5CCCCC5)nc4)c(-c4ccccc4)c23)CC1` [Example 125], the melting point lay in the range of 208 to 209 °C.
For the molecule `COc1cc(OC)cc(-c2oc3ncnc(NCCc4cccs4)c3c2-c2ccccc2)c1` [Example 134], the melting point lay within 152 to 153 °C.
`COc1cc(OC)cc(-c2oc3ncnc(NC4CCCC4)c3c2-c2ccccc2)c1` [Example 135] yielded a melting point of 153 to 154 °C.
`COc1ccc(-c2oc3ncnc(N4CCCCCC4)c3c2-c2ccc(F)cc2)cc1OC` [Example 141] returned a melting point of 148 to 150 °C.
Same read-out and setting: the same measure for `COc1ccc(-c2oc3ncnc(N4CCC(C(N)=O)CC4)c3c2-c2ccccc2)cc1OC` [Example 154]: over 250 °C; for `COc1cc(OC)cc(-c2oc3ncnc(N(C)CCO)c3c2-c2ccccc2)c1` [Example 157]: 132 to 134 °C.
In turn, `COc1ccc(-c2oc3ncnc(N(CCO)CCO)c3c2-c2ccccc2)cc1OC` [Example 159] displayed a melting point of 137 to 139 °C.
As to `COc1ccc(-c2oc3ncnc(Nc4ccncc4)c3c2-c2ccccc2)cc1OC` [Example 172], the melting point was over 250 °C.
On to `CN1CCN(c2ccc(-c3oc4ncnc(N5CCN(C)CC5)c4c3-c3ccccc3)cn2)CC1` [Example 173], for which the melting point was 176 to 177 °C.
`OCCN(Cc1ccccc1)c1ncnc2oc(-c3ccc(F)cc3)c(-c3ccc(F)cc3)c12` [Example 177] had a melting point of 156 to 158 °C.

The next data set concerns the target human recombinant adenosine kinase (Homo sapiens, UniProt P55263). In words: Inhibition of human recombinant adenosine kinase. It is filed as biochemical. The note with it: 14C-adenosine substrate, 0.5 mM ATP, 37° C., 20 min; read-out: Adenosine kinase inhibition (in vitro): IC50. On the procedure: 1. Inhibition of Human Recombinant Adenosine Kinase
The test is carried out on 96-well filter plates (DE81 from Millipore, DEAE cellulose, 0.65 μm). The test buffer contains 50 mM tris/HCl pH 8.0, 10 mM DTT and 1 mM MgCl2; immediately prior to the start of the test, ATP is added in a concentration of 0.5 mM. The substrate used is ^14C-adenosine, diluted 1:30 in cold adenosine; the final concentration of the cold adenosine is 4×10^−6 M; the amount of ^14C-adenosine is chosen such that, at a volume of 10 μl, an activity of 0.5 kBq (=30 000 decays per minute) is present per well of the filter plate. The substances to be tested are dissolved in DMSO in a concentration of 10^−2 M. Further dilutions are carried out using water.
When carrying out the test, initially 80 μl of buffer are initially charged into each well. The test substances, the substrate adenosine and finally human recombinant adenosine kinase (Mathews J. J. et al., Biochemistry (1998) 37, 15607-15620) in test buffer pH 7.4 are added successively, in each case in a volume of 10 μl. The adenosine kinase concentration is chosen such that at most 30% of the total amount of adenosine are converted. The plates are then incubated at 37° C. for 20 min. The reaction is then stopped by filtration with suction. The filters are washed in each case once with ice-cold wash buffer (15 mM Tris/HCl pH 8.5) and ethanol. The plate is dried at 37° C. (about 15 min). 50 μl of scintillation solution are then pipetted into each well, and the ^14C activity is determined in a MicroBeta counter.
The inhibition of the enzyme activity by the substances tested is determined after substration of the blank value (no added enzyme) in comparison to the uninhibited enzyme (100% value).
The term IC50 denotes the concentration that inhibits the measured activity by half. Take `CN1CCN(c2ncnc3oc(-c4ccc(NC(=O)CN)cc4)c(-c4ccc(F)cc4)c23)CC1` [Example 6, N-1-{4-[5-(4-Fluorophenyl)-4-(4-methyl-1-piperazinyl)furo[2,3-d]pyrimidin-6-yl]phenylgylcinamidedihydrochloride]: the concentration for half-maximal inhibition (IC50) was found to be 20 nM.
Turning to `CN1CCN(c2ccc(-c3oc4ncnc(N5CCC(O)CC5)c4c3-c3ccccc3)cn2)CC1` [Example 10, 1-{6-[6-(4-Methyl-1-piperazinyl)-3-pyridinyl]-5-phenylfuro[2,3-d]pyrimidin-4-yl]-4-piperidinol], the IC50 was determined as 10 nM.
With `CC(C)CNc1ncnc2oc(-c3ccc(C(=O)N4CCN(C)CC4)cc3)c(-c3ccccc3)c12` [Example 13, N-Isobutyl-6-{4-[(4-methyl-1-piperazinyl)carbonyl]phenyl}-5-phenylfuro[2,3-d]-pyrimidine-4-amine], the IC50 stood at 100 nM.
Turning to `CN1CCN(c2ncnc3oc(-c4ccc(N5CCC5=O)cc4)c(-c4ccc(F)cc4)c23)CC1` [Example 24, 1-{4-[5-(4-Fluorophenyl)-4-(4-methyl-1-piperazinyl)furo[2,3-d]pyrimidin-6-yl]phenyl}-2-azetidinone], the half-inhibitory concentration (IC50) came out at 30 nM.
For `COc1ccc(-c2oc3ncnc(N(C)C4CCCCCC4)c3c2-c2ccc(OC)cc2)cc1` [Example 29, N-Cycloheptyl-5,6-bis(4-methoxyphenyl)-N-methylfuro[2,3-d]pyrimidine-4-amine], the concentration for half-maximal inhibition (IC50) came out at 80 nM.
In the case of `CN1CCN(c2ncnc3oc(-c4ccc(NC(=O)c5cccnc5)cc4)c(-c4ccccc4)c23)CC1` [Example 32, N-{4-[4-(4-Methyl-1-piperazinyl)-5-phenylfuro[2,3-d]pyrimidin-6-yl]phenyl}-nicotinamide], the IC50 is 30 nM.
As for `OCCNc1ccc(-c2oc3ncnc(N4CCC(O)CC4)c3c2-c2ccc(F)cc2)cn1` [Example 193, 1-(5-(4-Fluorophenyl)-6-{6-[(2-hydroxyethyl)amino]-3-pyridinyl]furo[2,3-d]pyrimidin-4-yl)-4-piperidinol], the IC50 stood at 30 nM.

For the origin of these results see patent US20040259888A1, “Novel 4-aminofuropyrimidines and the use thereof” (priority 2001, published 2004).
